# Experimental data: ChEMBL document CHEMBL1201862, “PubChem BioAssay data set” (2004)
#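 Interpolation was linear, between the two tested concentrations surrounding the appropriate level; five concentrations were tested over 48 hours in 96-well plates. GI50 marks 50% less growth.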 The source made the active and inactive calls. Cut-off read from the data, not from the text of the source: active = GI50 up to about 1.1 µM and inactive = higher.
# Assays:
# Assay in all cases: inhibition of tumour cell growth, NCI panel, 48 h
# EKVX = test system: EKVX
# IGROV-1 = test system: IGROV-1
# RPMI-8226 = test system: RPMI-8226
# SK-MEL-28 = test system: SK-MEL-28
# KM-20L2 = test system: KM-20L2
# HCT-15 = test system: HCT-15
# NCI-H23 = test system: NCI-H23
# SN12C = test system: SN12C
# LXFL 529 = test system: LXFL 529
# SNB-75 = test system: SNB-75
# DMS-114 = test system: DMS-114
# SF-539 = test system: SF-539
# CCRF-CEM = test system: CCRF-CEM
# SK-MEL-5 = test system: SK-MEL-5
# SF-268 = test system: SF-268
# SR = test system: SR
# OVCAR-4 = test system: OVCAR-4
# UACC-62 = test system: UACC-62
# RXF 393 = test system: RXF 393
# NCI-H460 = test system: NCI-H460
# HOP-18 = test system: HOP-18
# SW-620 = test system: SW-620
# UO-31 = test system: UO-31
# HOP-92 = test system: HOP-92
# HOP-62 = test system: HOP-62
# HT-29 = test system: HT-29
# A498 = test system: A498
# OVCAR-3 = test system: OVCAR-3
# SNB-19 = test system: SNB-19
# HCC 2998 = test system: HCC 2998
# DLD-1 = test system: DLD-1
# NCI-H522 = test system: NCI-H522
# KM12 = test system: KM12
# DMS-273 = test system: DMS-273
# SK-MEL-2 = test system: SK-MEL-2
# OVCAR-5 = test system: OVCAR-5
# Malme-3M = test system: Malme-3M
# M19-MEL = test system: M19-MEL
# U-251 = test system: U-251
# M14 = test system: M14
# K562 = test system: K562
# LOX IMVI = test system: LOX IMVI
# ACHN = test system: ACHN
# HCT-116 = test system: HCT-116
# SK-OV-3 = test system: SK-OV-3
# NCI-H226 = test system: NCI-H226
# HL-60 = test system: HL-60
# OVCAR-8 = test system: OVCAR-8
# SF-295 = test system: SF-295
# SNB-78 = test system: SNB-78
# COLO 205 = test system: COLO 205
# 786-0 = test system: 786-0
# TK-10 = test system: TK-10
# UACC-257 = test system: UACC-257
# CAKI-1 = test system: CAKI-1
# MOLT-4 = test system: MOLT-4
# A549 = test system: A549
# XF498 = test system: XF498
structure (smiles),measurement,setting,value
O=C1Cc2ccccc2CCc2ccccc21,GI50,EKVX,79.6 µM (inactive)
same,GI50,IGROV-1,> 100 µM (inactive)
same,GI50,RPMI-8226,82.4 µM (inactive)
same,GI50,SK-MEL-28,> 100 µM (inactive)
same,GI50,KM-20L2,> 100 µM (inactive)
same,GI50,HCT-15,> 100 µM
same,GI50,NCI-H23,74.6 µM (inactive)
same,GI50,SN12C,> 100 µM (inactive)
same,GI50,LXFL 529,> 100 µM (inactive)
same,GI50,SNB-75,81.8 µM (inactive)
same,GI50,DMS-114,47 µM (inactive)
same,GI50,SF-539,> 100 µM (inactive)
same,GI50,CCRF-CEM,> 100 µM (inactive)
same,GI50,SK-MEL-5,> 100 µM (inactive)
same,GI50,SF-268,> 100 µM (inactive)
same,GI50,SR,> 100 µM (inactive)
same,GI50,OVCAR-4,> 100 µM (inactive)
same,GI50,UACC-62,> 100 µM (inactive)
same,GI50,RXF 393,> 100 µM (inactive)
same,GI50,NCI-H460,> 100 µM (inactive)
same,GI50,HOP-18,> 100 µM (inactive)
same,GI50,SW-620,> 100 µM (inactive)
same,GI50,UO-31,45.4 µM (inactive)
same,GI50,HOP-92,35.6 µM (inactive)
same,GI50,HOP-62,> 100 µM (inactive)
same,GI50,HT-29,> 100 µM (inactive)
same,GI50,A498,> 100 µM (inactive)
same,GI50,OVCAR-3,> 100 µM (inactive)
same,GI50,SNB-19,> 100 µM (inactive)
same,GI50,HCC 2998,> 100 µM (inactive)
same,GI50,DLD-1,> 100 µM (inactive)
same,GI50,NCI-H522,68.9 µM (inactive)
same,GI50,KM12,> 100 µM (inactive)
same,GI50,DMS-273,> 100 µM (inactive)
same,GI50,SK-MEL-2,64.1 µM (inactive)
same,GI50,OVCAR-5,> 100 µM (inactive)
same,GI50,Malme-3M,44.7 µM (inactive)
same,GI50,M19-MEL,> 100 µM (inactive)
same,GI50,U-251,> 100 µM (inactive)
same,GI50,M14,> 100 µM (inactive)
same,GI50,K562,75.3 µM (inactive)
same,GI50,LOX IMVI,> 100 µM (inactive)
same,GI50,ACHN,> 100 µM (inactive)
same,GI50,HCT-116,> 100 µM (inactive)
same,GI50,SK-OV-3,> 100 µM (inactive)
same,GI50,NCI-H226,> 100 µM (inactive)
same,GI50,HL-60,> 100 µM (inactive)
same,GI50,OVCAR-8,> 100 µM (inactive)
same,GI50,SF-295,83 µM (inactive)
same,GI50,SNB-78,> 100 µM (inactive)
same,GI50,COLO 205,> 100 µM (inactive)
same,GI50,786-0,> 100 µM (inactive)
same,GI50,TK-10,> 100 µM (inactive)
same,GI50,UACC-257,> 100 µM (inactive)
same,GI50,CAKI-1,> 100 µM (inactive)
same,GI50,MOLT-4,> 100 µM (inactive)
same,GI50,A549,> 100 µM (inactive)
Cc1ccc(NC(=O)CC2C(=O)Nc3ccccc3S2(=O)=O)c(C)c1 (centres undefined),GI50,XF498,14.8 µM (inactive)
same,GI50,EKVX,42.5 µM (inactive)
same,GI50,IGROV-1,12.4 µM (inactive)
same,GI50,RPMI-8226,15.2 µM (inactive)
same,GI50,SK-MEL-28,17 µM (inactive)
same,GI50,KM-20L2,13.8 µM (inactive)
same,GI50,HCT-15,8.32 µM
same,GI50,NCI-H23,17.8 µM (inactive)
same,GI50,SN12C,18.6 µM (inactive)
same,GI50,LXFL 529,16.7 µM (inactive)
same,GI50,SNB-75,15.2 µM (inactive)
same,GI50,DMS-114,15 µM (inactive)
same,GI50,SF-539,15.5 µM (inactive)
same,GI50,CCRF-CEM,16.4 µM (inactive)
same,GI50,SK-MEL-5,4.78 µM (inactive)
same,GI50,SF-268,20.3 µM (inactive)
same,GI50,SR,1.8 µM (inactive)
same,GI50,OVCAR-4,18.7 µM (inactive)
same,GI50,UACC-62,7.26 µM (inactive)
same,GI50,RXF 393,17 µM (inactive)
same,GI50,NCI-H460,16 µM (inactive)
same,GI50,SW-620,5.21 µM (inactive)
same,GI50,UO-31,18.8 µM (inactive)
same,GI50,HOP-92,15 µM (inactive)
same,GI50,HT-29,13.5 µM (inactive)
same,GI50,A498,14.8 µM (inactive)
same,GI50,OVCAR-3,14.1 µM (inactive)
same,GI50,SNB-19,14 µM (inactive)
same,GI50,HCC 2998,13.4 µM (inactive)
same,GI50,DLD-1,14.6 µM (inactive)
same,GI50,NCI-H522,10.9 µM (inactive)
same,GI50,DMS-273,10.7 µM (inactive)
same,GI50,SK-MEL-2,29 µM (inactive)
same,GI50,OVCAR-5,24.7 µM (inactive)
same,GI50,Malme-3M,12.9 µM (inactive)
same,GI50,U-251,12.7 µM (inactive)
same,GI50,M14,11.2 µM (inactive)
same,GI50,K562,4.66 µM (inactive)
same,GI50,LOX IMVI,15 µM (inactive)
same,GI50,ACHN,18 µM (inactive)
same,GI50,HCT-116,12.2 µM (inactive)
same,GI50,NCI-H226,17 µM (inactive)
same,GI50,HL-60,2.77 µM (inactive)
same,GI50,OVCAR-8,18.2 µM (inactive)
same,GI50,SF-295,25.5 µM (inactive)
same,GI50,SNB-78,18.1 µM (inactive)
same,GI50,786-0,18.3 µM (inactive)
same,GI50,TK-10,25.9 µM (inactive)
same,GI50,UACC-257,21.6 µM (inactive)
same,GI50,CAKI-1,8.79 µM (inactive)
same,GI50,MOLT-4,7.33 µM (inactive)
same,GI50,A549,18.7 µM (inactive)
CC(C)(c1cn(Cc2ccccc2)c2ccccc12)c1cn(Cc2ccccc2)c2ccccc12,GI50,EKVX,> 100 µM (inactive)
same,GI50,IGROV-1,> 100 µM (inactive)
same,GI50,RPMI-8226,> 100 µM (inactive)
same,GI50,HCT-15,> 100 µM
same,GI50,NCI-H23,> 100 µM (inactive)
same,GI50,SN12C,1.7 µM (inactive)
same,GI50,LXFL 529,> 100 µM (inactive)
same,GI50,SNB-75,17.3 µM (inactive)
same,GI50,DMS-114,> 100 µM (inactive)
same,GI50,SF-539,> 100 µM (inactive)
same,GI50,CCRF-CEM,> 100 µM (inactive)
same,GI50,SK-MEL-5,> 100 µM (inactive)
same,GI50,SF-268,> 100 µM (inactive)
same,GI50,SR,> 100 µM (inactive)
same,GI50,OVCAR-4,> 100 µM (inactive)
same,GI50,UACC-62,> 100 µM (inactive)
same,GI50,NCI-H460,> 100 µM (inactive)
same,GI50,SW-620,> 100 µM (inactive)
same,GI50,HOP-92,32.2 µM (inactive)
same,GI50,HOP-62,> 100 µM (inactive)
same,GI50,HT-29,> 100 µM (inactive)
same,GI50,OVCAR-3,> 100 µM (inactive)
same,GI50,DLD-1,91.2 µM (inactive)
same,GI50,NCI-H522,76.9 µM (inactive)
same,GI50,KM12,> 100 µM (inactive)
same,GI50,OVCAR-5,> 100 µM (inactive)
same,GI50,Malme-3M,1.94 µM (inactive)
same,GI50,M19-MEL,> 100 µM (inactive)
same,GI50,U-251,> 100 µM (inactive)
same,GI50,M14,> 100 µM (inactive)
same,GI50,K562,> 100 µM (inactive)
same,GI50,LOX IMVI,> 100 µM (inactive)
same,GI50,ACHN,> 100 µM (inactive)
same,GI50,HCT-116,> 100 µM (inactive)
same,GI50,SK-OV-3,> 100 µM (inactive)
same,GI50,NCI-H226,51.3 µM (inactive)
same,GI50,HL-60,> 100 µM (inactive)
same,GI50,OVCAR-8,> 100 µM (inactive)
same,GI50,SF-295,> 100 µM (inactive)
same,GI50,SNB-78,> 100 µM (inactive)
same,GI50,COLO 205,> 100 µM (inactive)
same,GI50,786-0,> 100 µM (inactive)
same,GI50,CAKI-1,> 100 µM (inactive)
same,GI50,MOLT-4,> 100 µM (inactive)
same,GI50,A549,> 100 µM (inactive)
